Assay results: ChEMBL document CHEMBL1926670, “1,2-Benzothiazine 1,1-dioxide carboxylate derivatives as novel potent inhibitors of aldose reductase” (Bioorg Med Chem, 2011)

How the values were obtained:
[1] = target: Aldo-keto reductase family 1 member A1 (Rattus norvegicus, UniProt P51635); experiment: Inhibition of Wistar rat kidney ALR1 using D-glucuronate as substrate after 10 mins by UV/VIS double spectrophotometric analysis
[2] = target: Aldo-keto reductase family 1 member B1 (Rattus norvegicus, UniProt P07943); experiment: Inhibition of Wistar rat lens ALR2 using D,L-glyceraldehyde as substrate after 10 mins by UV/VIS double spectrophotometric analysis; assay type: tissue-based, Lens of camera-type eye
[3] = target: Aldo-keto reductase family 1 member B1 (Rattus norvegicus) (UniProt P07943); experiment: Inhibition of Wistar rat lens ALR2 using D,L-glyceraldehyde as substrate at 10 uM after 10 mins by UV/VIS double spectrophotometric analysis; assay type: tissue-based; conditions: Lens of camera-type eye

Sequence of Aldo-keto reductase family 1 member A1 (P51635 whole entry, looked up): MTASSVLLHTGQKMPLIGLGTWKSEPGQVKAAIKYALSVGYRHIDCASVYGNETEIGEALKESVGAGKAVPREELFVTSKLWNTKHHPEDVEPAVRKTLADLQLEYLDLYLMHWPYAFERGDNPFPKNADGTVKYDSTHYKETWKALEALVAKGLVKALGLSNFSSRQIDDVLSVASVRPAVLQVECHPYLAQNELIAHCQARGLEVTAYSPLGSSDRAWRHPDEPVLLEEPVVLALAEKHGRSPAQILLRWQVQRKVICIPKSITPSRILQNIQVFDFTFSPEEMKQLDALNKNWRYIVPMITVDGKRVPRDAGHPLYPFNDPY

| Structure (SMILES) | IC50 [1] | IC50 [2] | inhibition [3] |
| --- | --- | --- | --- |
| O=C(O)CC1CN(Cc2cc(F)c(F)cc2F)S(=O)(=O)c2ccccc21 (racemic) | > 10000 nM | 340 nM |  |
| O=C(O)CC1CN(Cc2ccccc2F)S(=O)(=O)c2ccccc21 (racemic) |  | 1730 nM |  |
| O=C(O)CC1CN(Cc2ccc(C(F)(F)F)cc2)S(=O)(=O)c2ccccc21 (racemic) |  | 5300 nM |  |
| O=C(O)/C=C1\CN(Cc2ccc(Br)cc2F)S(=O)(=O)c2ccccc21 (mixture of isomers) | > 10000 nM | 110 nM |  |
| O=C(O)/C=C1\CN(Cc2cc(C(F)(F)F)cc(C(F)(F)F)c2)S(=O)(=O)c2ccccc21 (mixture of isomers) |  |  | 32% |
| O=C(O)/C=C1\CN(Cc2cc(F)c(F)cc2F)S(=O)(=O)c2ccccc21 (mixture of isomers) | > 10000 nM | 590 nM |  |
| O=C(O)/C=C1\CN(Cc2ccccc2F)S(=O)(=O)c2ccccc21 (mixture of isomers) |  | 2130 nM |  |
| O=C(O)/C=C1\CN(Cc2cccc([N+](=O)[O-])c2)S(=O)(=O)c2ccccc21 (mixture of isomers) | > 10000 nM | 140 nM |  |
| O=C(O)/C=C1\CN(Cc2ccc(C(F)(F)F)cc2)S(=O)(=O)c2ccccc21 (mixture of isomers) |  | 6130 nM |  |
| O=C(O)CC1CN(Cc2cc(C(F)(F)F)cc(C(F)(F)F)c2)S(=O)(=O)c2ccccc21 (racemic) |  | 10400 nM |  |
